Source: patent US12180187B2, “1-phenyl-5-azinylpyrazolyl-3-oxyalkyl acids and their use for controlling unwanted plant growth” (BAYER AKTIENGESELLSCHAFT, priority 2019, dated 2024)

Tests used:
AMARE [1] = assay: Pre-emergence action against AMARE, 1280 g/ha; assay type: in vivo, Amaranthus retroflexus; conditions: scored visually after about 3 weeks vs untreated controls (100% = plants have died)
In short: (§1)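 Percent herbicidal effect, judged by eye relative to untreated pots around 3 weeks after soil-surface treatment. Application: formulated compound in water, 600 L/ha, 0.5% additive, on soil over sown seeds; greenhouse.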

AMARE [2] = assay: Post-emergence action against AMARE, 1.28 kg/ha; assay type: in vivo, Amaranthus retroflexus; conditions: dosage 1280 g/ha, visual rating about 3 weeks after treatment vs untreated controls (100% = plants died)
In short: (§2)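 Foliar application at the one-leaf stage: compound as WP or EC in water with 0.5% additive, sprayed at 600 L/ha. Plants are kept about 3 weeks in the greenhouse, then % herbicidal action is estimated visually (100% = death).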

ECHCG [3] = assay: Post-emergence action against ECHCG, 1.28 kg/ha; assay type: in vivo, Echinochloa crus-galli; conditions: dosage 1280 g/ha, visual rating about 3 weeks after treatment vs untreated controls
Protocol: (§3) • a) Seeds of mono- and dicotyledonous weed plants are placed in plastic pots in sandy loam soil (twin sowing with one species each of mono- or dicotyledonous weed plants per pot), covered with soil and cultivated in a greenhouse under controlled growth conditions. 2 to 3 weeks after sowing, the test plants are treated at the one-leaf stage. The compounds of the invention, formulated in the form of wettable powders (WP) or as emulsion concentrates (EC), are applied to the green parts of the plants as aqueous suspension or emulsion with addition of 0.5% additive at a water application rate equivalent to 600 litres per hectare. After the test plants have been kept in the greenhouse under optimum growth conditions for about 3 weeks, the activity of the preparations is rated visually in comparison to untreated controls. For example, 100% activity=the plants have died, 0% activity=like control plants. As shown by the results, compounds of the general formula (I) of the invention, in post-emergence treatment, have very good herbicidal efficacy (90% to 100% herbicidal action) against harmful plants such as Abutilon theophrasti, Digitaria sanguinalis, Echinochloa crus-galli, Matricaria inodora, Poa annua, at an application rate of 1.28 kg of active substance per hectare.

DIGSA [4] = assay: Post-emergence action against DIGSA, 1.28 kg/ha; assay type: in vivo, Digitaria sanguinalis; conditions: dosage 1280 g/ha, visual rating about 3 weeks after treatment vs untreated controls
In short: as §2

VERPE [5] = assay: Pre-emergence action against VERPE, 1280 g/ha; assay type: in vivo, Veronica persica; conditions: scored visually after about 3 weeks vs untreated controls (100% = plants have died)
In short: as §1

LOLRI [6] = assay: Post-emergence action against LOLRI, 1.28 kg/ha; assay type: in vivo, Lolium rigidum; conditions: dosage 1280 g/ha, visual rating about 3 weeks after treatment vs untreated controls
Protocol: as §3

POAAN [7] = assay: Pre-emergence action against POAAN, 1280 g/ha; assay type: in vivo, Poa annua; conditions: visual scoring after about 3 weeks vs untreated controls, 100% = plants have died, 0% = like control plants
In short: as §1

VERPE [8] = assay: Post-emergence action against VERPE, 1.28 kg/ha; assay type: in vivo, Veronica persica; conditions: dosage 1280 g/ha, visual rating about 3 weeks after treatment vs untreated controls (100% = plants died)
In short: as §2

ECHCG [9] = assay: Pre-emergence action against ECHCG, 1280 g/ha; assay type: in vivo, Echinochloa crus-galli; conditions: visual scoring after about 3 weeks vs untreated controls, 100% = plants have died, 0% = like control plants
In short: as §1

DIGSA [10] = assay: Pre-emergence action against DIGSA, 1280 g/ha; assay type: in vivo, Digitaria sanguinalis; conditions: visual scoring after about 3 weeks vs untreated controls, 100% = plants have died, 0% = like control plants
In short: as §1

POAAN [11] = assay: Post-emergence action against POAAN, 1.28 kg/ha; assay type: in vivo, Poa annua; conditions: dosage 1280 g/ha, visual rating about 3 weeks after treatment vs untreated controls
In short: as §2

ABUTH = assay: Post-emergence action against ABUTH, 1.28 kg/ha; assay type: in vivo, Abutilon theophrasti; conditions: dosage 1280 g/ha, visual rating about 3 weeks after treatment vs untreated controls (100% = plants died)
Protocol: as §3

LOLRI [12] = assay: Pre-emergence action against LOLRI, 1280 g/ha; assay type: in vivo, Lolium rigidum; conditions: visual scoring after about 3 weeks vs untreated controls, 100% = plants have died, 0% = like control plants
In short: as §1

STEME [13] = assay: Post-emergence action against STEME, 1.28 kg/ha; assay type: in vivo, Stellaria media; conditions: dosage 1280 g/ha, visual rating about 3 weeks after treatment vs untreated controls (100% = plants died)
In short: as §2

MATIN [14] = assay: Post-emergence action against MATIN, 1.28 kg/ha; assay type: in vivo, Tripleurospermum inodorum (Matricaria inodora); conditions: dosage 1280 g/ha, visual rating about 3 weeks after treatment vs untreated controls (100% = plants died)
In short: as §2

STEME [15] = assay: Pre-emergence action against STEME, 1280 g/ha; assay type: in vivo, Stellaria media; conditions: scored visually after about 3 weeks vs untreated controls (100% = plants have died)
In short: as §1

SETVI [16] = assay: Pre-emergence action against SETVI, 1280 g/ha; assay type: in vivo, Setaria viridis; conditions: visual scoring after about 3 weeks vs untreated controls, 100% = plants have died, 0% = like control plants
In short: as §1

MATIN [17] = assay: Pre-emergence action against MATIN, 1280 g/ha; assay type: in vivo, Tripleurospermum inodorum (Matricaria inodora); conditions: scored visually after about 3 weeks vs untreated controls (100% = plants have died)
In short: as §1

SETVI [18] = assay: Post-emergence action against SETVI, 1.28 kg/ha; assay type: in vivo, Setaria viridis; conditions: dosage 1280 g/ha, visual rating about 3 weeks after treatment vs untreated controls
Protocol: as §3

ALOMY [19] = assay: Pre-emergence action against ALOMY, 1280 g/ha; assay type: in vivo, Alopecurus myosuroides; conditions: visual scoring after about 3 weeks vs untreated controls, 100% = plants have died, 0% = like control plants
In short: as §1

ALOMY [20] = assay: Post-emergence action against ALOMY, 1.28 kg/ha; assay type: in vivo, Alopecurus myosuroides; conditions: dosage 1280 g/ha, visual rating about 3 weeks after treatment vs untreated controls
In short: as §2

POLCO = assay: Pre-emergence action at 320 g/ha against POLCO; assay type: in vivo, Fallopia convolvulus (Polygonum convolvulus); conditions: visual scoring after about 3 weeks vs untreated controls
Text: (§4) b) Seeds of monocotyledonous and dicotyledonous weed plants and crop plants are placed in plastic or organic planting pots and covered with soil. The compounds of the invention, formulated in the form of wettable powders (WP) or as emulsion concentrates (EC), are then applied onto the surface of the covering soil as aqueous suspension or emulsion with addition of 0.5% additive at a water application rate of 600 l/ha (converted). After the treatment, the pots are placed in a greenhouse and kept under good growth conditions for the trial plants. After about 3 weeks, the effect of the preparations is scored visually in comparison with untreated controls as percentages. For example, 100% activity=the plants have died, 0% activity=like control plants. Tables 13 to 26 below show the effects of selected compounds of the general formula (I) on various harmful plants and at an application rate corresponding to 320 g/ha, which were obtained by the experimental procedure mentioned above.

VERPE [21] = assay: Pre-emergence action at 320 g/ha against VERPE; assay type: in vivo, Veronica persica; conditions: visual scoring after about 3 weeks vs untreated controls
Text: as §4

AVEFA = assay: Pre-emergence action at 320 g/ha against AVEFA; assay type: in vivo; conditions: visual scoring after about 3 weeks vs untreated controls
Text: as §4

MATIN [22] = assay: Pre-emergence action at 320 g/ha against MATIN; assay type: in vivo, Tripleurospermum inodorum (Matricaria inodora); conditions: visual scoring after about 3 weeks vs untreated controls
Text: as §4

VIOTR = assay: Pre-emergence action at 320 g/ha against VIOTR; assay type: in vivo, Viola tricolor; conditions: dosage 320 g/ha
Text: as §4

LOLRI [23] = assay: Pre-emergence action at 320 g/ha against LOLRI; assay type: in vivo, Lolium rigidum; conditions: visual scoring after about 3 weeks vs untreated controls
Text: as §4

AMARE [24] = assay: Pre-emergence action at 320 g/ha against AMARE; assay type: in vivo, Amaranthus retroflexus; conditions: visual scoring after about 3 weeks vs untreated controls
Text: as §4

SETVI [25] = assay: Pre-emergence action at 320 g/ha against SETVI; assay type: in vivo, Setaria viridis; conditions: visual scoring after about 3 weeks vs untreated controls
Text: as §4

ALOMY [26] = assay: Pre-emergence action at 320 g/ha against ALOMY; assay type: in vivo, Alopecurus myosuroides; conditions: scored visually after about 3 weeks vs untreated controls (100% = plants have died)
Text: as §4

DIGSA [27] = assay: Pre-emergence action at 320 g/ha against DIGSA; assay type: in vivo, Digitaria sanguinalis; conditions: visual scoring after about 3 weeks vs untreated controls
Text: as §4

| SMILES | Pre-emergence action against AMARE (AMARE [1]) [%] | Post-emergence action against AMARE (AMARE [2]) [%] | Post-emergence action against ECHCG (ECHCG [3]) [%] | Post-emergence action against DIGSA (DIGSA [4]) [%] | Pre-emergence action against VERPE (VERPE [5]) [%] | Post-emergence action against LOLRI (LOLRI [6]) [%] | Pre-emergence action against POAAN (POAAN [7]) [%] | Post-emergence action against VERPE (VERPE [8]) [%] | Pre-emergence action against ECHCG (ECHCG [9]) [%] | Pre-emergence action against DIGSA (DIGSA [10]) [%] | Post-emergence action against POAAN (POAAN [11]) [%] | Post-emergence action against ABUTH (ABUTH) [%] | Pre-emergence action against LOLRI (LOLRI [12]) [%] | Post-emergence action against STEME (STEME [13]) [%] | Post-emergence action against MATIN (MATIN [14]) [%] | Pre-emergence action against STEME (STEME [15]) [%] | Pre-emergence action against SETVI (SETVI [16]) [%] | Pre-emergence action against MATIN (MATIN [17]) [%] | Post-emergence action against SETVI (SETVI [18]) [%] | Pre-emergence action against ALOMY (ALOMY [19]) [%] | further results |
| --- | --- | --- | --- | --- | --- | --- | --- | --- | --- | --- | --- | --- | --- | --- | --- | --- | --- | --- | --- | --- | --- |
| COC(=O)C(C)Oc1nn(-c2ccccc2)c(-c2ccnc(F)c2)c1Cl (centres unmarked) [VIII-007] | 100 | 100 | 90 | 90 | 100 | 100 | 100 | 100 | 100 | 90 | 100 | 90 | 100 | 100 | 90 | 90 | 100 | 90 |  |  |  |
| O=C(O)CNC(=O)COc1nn(-c2ccccc2F)c(-c2ccc(F)nc2)c1C(F)(F)F [Example X-026] | 100 | 90 |  | 100 | 100 | 90 | 100 | 90 | 100 | 100 | 100 | 90 | 100 | 100 | 100 | 100 | 100 | 100 | 100 | 100 | Post-emergence action against ALOMY (ALOMY [20]): 100% |
| Cc1ccccc1-n1nc(OCC(=O)O)c(I)c1-c1ccc(F)nc1 [VII-097] | 100 |  | 100 | 100 | 100 | 90 | 100 | 100 | 100 | 100 | 100 |  | 100 | 90 | 90 | 100 | 100 | 90 | 90 |  | Post-emergence action against ALOMY (ALOMY [20]): 100% |
| O=C(COc1nn(-c2ccccc2F)c(-c2cncnc2)c1Br)OCc1ccccc1 [VI-002] | 100 | 90 | 100 |  | 90 | 100 | 100 | 90 | 100 |  | 100 | 90 | 100 | 90 | 100 | 100 | 100 | 90 | 90 |  |  |
| CCOC(=O)COc1nn(-c2ccccc2)c(-c2ccc(F)nc2)c1Br [VII-116] |  |  |  |  |  |  |  |  |  |  |  |  |  |  |  |  |  |  |  |  | Pre-emergence action against POLCO in % (POLCO): 90%; Pre-emergence action against VERPE in % (VERPE [21]): 100%; Pre-emergence action against AVEFA in % (AVEFA): 90%; Pre-emergence action against MATIN in % (MATIN [22]): 90%; Pre-emergence action against VIOTR in % (VIOTR): 90%; Pre-emergence action against LOLRI in % (LOLRI [23]): 100%; Pre-emergence action against AMARE in % (AMARE [24]): 100%; Pre-emergence action against SETVI in % (SETVI [25]): 100%; Pre-emergence action at 320 g/ha against ALOMY in % (ALOMY [26]): 100%; Pre-emergence action against DIGSA in % (DIGSA [27]): 100% |
| O=C(COc1nn(-c2ccccc2F)c(-c2ccc(F)nc2)c1Br)OCC1CCCO1 (centres unmarked) [VII-090] | 100 |  | 100 | 100 | 100 | 90 | 100 | 100 | 100 | 100 | 100 |  | 100 |  | 90 | 100 | 100 | 100 |  | 100 |  |
| O=C(COc1nn(-c2ccccc2F)c(-c2ccc(F)nc2)c1C(F)(F)F)NS(=O)(=O)CC(F)(F)F [Example X-006] | 100 | 100 | 100 | 90 | 100 | 90 | 100 | 90 | 100 | 100 | 100 | 90 | 100 | 100 | 100 | 100 | 100 | 100 |  |  | Post-emergence action against ALOMY (ALOMY [20]): 100% |
| Cc1ccc(-n2nc(OCC(=O)O)c(Br)c2-c2ccc(F)nc2)cc1 [VII-067] | 100 | 100 | 100 | 100 | 100 | 100 | 100 |  | 100 | 100 | 100 |  | 100 |  | 90 | 100 | 100 | 100 |  | 100 |  |
